Laboratory results taken from publication PMC4057101 (Science (New York, N.Y.), 2013).

Tests used:
Assay type in all cases: biochemical
NphT7 = target: T1, NphT7 (Streptomyces sp. CL190, UniProt D7URV0); test: steady-state kinetics, coupled assay with PhaB; details: acetyl-CoA starter
T1 sequence (D7URV0 1-329): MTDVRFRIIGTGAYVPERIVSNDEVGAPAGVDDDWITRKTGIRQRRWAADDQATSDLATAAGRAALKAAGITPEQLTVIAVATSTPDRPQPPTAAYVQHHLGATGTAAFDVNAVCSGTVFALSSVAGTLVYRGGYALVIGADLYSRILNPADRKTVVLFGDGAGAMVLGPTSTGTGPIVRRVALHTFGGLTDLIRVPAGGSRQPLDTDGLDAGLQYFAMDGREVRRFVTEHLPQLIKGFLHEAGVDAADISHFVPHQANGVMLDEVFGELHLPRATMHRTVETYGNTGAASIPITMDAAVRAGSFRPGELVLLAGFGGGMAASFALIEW

DEBSMod6+TE = DEBSMod6+TE (Saccharopolyspora erythraea, UniProt Q03133); test: LC-MS of triketide lactone formation; details: NDK-SNAC, MatB and ATP regeneration
acetate kinase (AckA) = acetate kinase (AckA) (Escherichia coli, UniProt P0A6A3); details: ATP
PhaB = PhaB (Cupriavidus necator, UniProt P14697); test: coupled reduction with NphT7; details: substrate formed in situ by NphT7
[1] = target: acetyl-CoA carboxylase (ACCase), AccABCD (Escherichia coli, UniProt P0A9Q5+P0ABD5); test: one-pot carboxylation; details: formed in situ from fluoroacetate by AckA-Pta; 500 μM CoA
Sequence of acetyl-CoA carboxylase (ACCase), AccABCD (P0A9Q5 whole entry): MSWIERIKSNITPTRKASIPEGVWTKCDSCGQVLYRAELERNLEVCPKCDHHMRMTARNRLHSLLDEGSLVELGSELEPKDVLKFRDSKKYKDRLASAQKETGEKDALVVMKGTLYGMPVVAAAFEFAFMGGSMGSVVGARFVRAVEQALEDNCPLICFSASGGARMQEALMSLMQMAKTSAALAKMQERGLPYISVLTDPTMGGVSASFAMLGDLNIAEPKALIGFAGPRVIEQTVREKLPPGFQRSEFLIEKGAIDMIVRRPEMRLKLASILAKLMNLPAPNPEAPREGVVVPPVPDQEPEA
Sequence of acetyl-CoA carboxylase (ACCase), AccABCD (P0ABD5 2-319): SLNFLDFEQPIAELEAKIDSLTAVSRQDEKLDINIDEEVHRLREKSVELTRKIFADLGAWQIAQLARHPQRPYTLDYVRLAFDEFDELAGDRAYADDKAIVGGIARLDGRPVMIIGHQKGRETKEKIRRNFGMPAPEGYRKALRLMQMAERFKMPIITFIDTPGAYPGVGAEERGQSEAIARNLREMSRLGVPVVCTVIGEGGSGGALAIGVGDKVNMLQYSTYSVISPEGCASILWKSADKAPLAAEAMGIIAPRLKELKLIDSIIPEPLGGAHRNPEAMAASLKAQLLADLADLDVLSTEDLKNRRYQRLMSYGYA

Sequence of DEBSMod6+TE (Q03133 1468-3172): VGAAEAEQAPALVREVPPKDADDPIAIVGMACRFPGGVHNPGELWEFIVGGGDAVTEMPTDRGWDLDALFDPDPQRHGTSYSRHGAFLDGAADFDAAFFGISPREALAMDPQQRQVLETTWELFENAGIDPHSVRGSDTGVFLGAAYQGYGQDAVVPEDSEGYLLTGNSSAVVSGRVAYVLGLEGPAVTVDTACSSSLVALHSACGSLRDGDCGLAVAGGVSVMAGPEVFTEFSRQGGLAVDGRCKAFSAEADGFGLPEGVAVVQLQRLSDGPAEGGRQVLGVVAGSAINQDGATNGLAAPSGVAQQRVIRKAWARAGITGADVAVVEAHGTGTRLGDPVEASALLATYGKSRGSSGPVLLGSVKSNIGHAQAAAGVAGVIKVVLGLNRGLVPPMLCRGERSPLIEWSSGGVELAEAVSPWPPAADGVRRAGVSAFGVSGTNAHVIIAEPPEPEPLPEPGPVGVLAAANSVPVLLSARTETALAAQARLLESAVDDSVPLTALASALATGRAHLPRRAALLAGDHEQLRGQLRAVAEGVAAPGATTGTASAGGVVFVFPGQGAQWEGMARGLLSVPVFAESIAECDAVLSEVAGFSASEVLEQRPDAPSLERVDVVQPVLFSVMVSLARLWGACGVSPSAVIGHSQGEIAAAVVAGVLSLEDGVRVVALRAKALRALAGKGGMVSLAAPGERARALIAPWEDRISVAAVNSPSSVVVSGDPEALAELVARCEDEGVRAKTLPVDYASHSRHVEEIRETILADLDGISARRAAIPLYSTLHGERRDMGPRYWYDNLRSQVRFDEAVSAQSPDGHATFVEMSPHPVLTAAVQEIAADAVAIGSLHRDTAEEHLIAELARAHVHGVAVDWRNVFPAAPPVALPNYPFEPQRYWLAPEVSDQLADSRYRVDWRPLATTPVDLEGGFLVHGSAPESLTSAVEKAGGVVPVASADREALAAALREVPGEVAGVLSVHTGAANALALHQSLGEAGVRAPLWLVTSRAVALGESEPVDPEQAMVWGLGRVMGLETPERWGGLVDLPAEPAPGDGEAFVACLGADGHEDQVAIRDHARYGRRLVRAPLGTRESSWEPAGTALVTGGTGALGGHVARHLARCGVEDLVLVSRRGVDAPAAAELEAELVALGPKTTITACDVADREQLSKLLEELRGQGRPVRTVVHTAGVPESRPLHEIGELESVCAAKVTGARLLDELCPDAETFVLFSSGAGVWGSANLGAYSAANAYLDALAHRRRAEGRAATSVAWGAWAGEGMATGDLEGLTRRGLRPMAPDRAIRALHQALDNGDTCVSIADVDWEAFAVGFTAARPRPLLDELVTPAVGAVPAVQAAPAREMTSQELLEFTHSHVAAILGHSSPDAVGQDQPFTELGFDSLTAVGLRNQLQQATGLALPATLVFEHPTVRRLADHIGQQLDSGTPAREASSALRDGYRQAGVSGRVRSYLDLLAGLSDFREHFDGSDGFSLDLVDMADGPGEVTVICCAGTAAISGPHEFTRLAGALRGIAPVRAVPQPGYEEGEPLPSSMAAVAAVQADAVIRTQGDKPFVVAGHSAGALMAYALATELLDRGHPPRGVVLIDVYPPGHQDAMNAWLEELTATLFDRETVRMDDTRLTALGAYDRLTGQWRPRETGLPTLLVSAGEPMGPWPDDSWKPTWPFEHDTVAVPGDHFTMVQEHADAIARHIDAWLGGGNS
Sequence of acetate kinase (AckA) (P0A6A3 whole entry): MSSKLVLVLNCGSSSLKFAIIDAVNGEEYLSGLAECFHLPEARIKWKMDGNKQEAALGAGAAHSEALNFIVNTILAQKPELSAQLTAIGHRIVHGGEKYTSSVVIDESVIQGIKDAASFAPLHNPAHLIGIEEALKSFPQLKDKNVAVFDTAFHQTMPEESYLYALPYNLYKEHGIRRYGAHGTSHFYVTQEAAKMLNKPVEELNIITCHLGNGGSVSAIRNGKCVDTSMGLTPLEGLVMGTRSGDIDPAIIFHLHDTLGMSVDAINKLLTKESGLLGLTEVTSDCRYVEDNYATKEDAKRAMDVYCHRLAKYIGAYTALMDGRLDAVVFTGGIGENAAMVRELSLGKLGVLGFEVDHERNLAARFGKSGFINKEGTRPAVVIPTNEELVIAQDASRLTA
Sequence of PhaB (P14697 whole entry): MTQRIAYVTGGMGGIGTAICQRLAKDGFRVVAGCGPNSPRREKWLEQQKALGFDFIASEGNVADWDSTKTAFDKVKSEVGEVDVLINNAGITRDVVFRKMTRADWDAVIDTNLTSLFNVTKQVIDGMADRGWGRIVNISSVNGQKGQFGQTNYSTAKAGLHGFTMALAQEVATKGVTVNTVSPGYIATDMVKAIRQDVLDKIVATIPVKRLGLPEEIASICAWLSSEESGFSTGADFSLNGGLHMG

Q: With CC(C)(COP(=O)(O)OP(=O)(O)OC[C@H]1O[C@@H](n2cnc3c(N)ncnc32)[C@H](O)[C@@H]1OP(=O)(O)O)[C@@H](O)C(=O)NCCC(=O)NCCSC(=O)C(F)C(=O)O (some centres unmarked) [fluoromalonyl-CoA] as the compound, how does the KM (NphT7) read?
A: formation of acetofluoroacetyl-CoA using an acetyl-CoA starter and fluoromalonyl-CoA extender

Q: What about the “LC-MS of triketide lactone formation” value (DEBSMod6+TE) of the same compound?
A: DEBSMod6+TE is also able to accept the fluorinated monomer in chain extension catalysis

Q: How did the KM (acetate kinase (AckA)) turn out when O=C(O)CF [fluoroacetate] was run?
A: Analysis of the kinetic parameters for these enzymes with respect to fluorinated substrates

Q: Which “coupled reduction with NphT7; 1H and 19F NMR of product” value (PhaB) does the source give for CC(=O)C(F)C(=O)SCCNC(=O)CCNC(=O)[C@H](O)C(C)(C)COP(=O)(O)OP(=O)(O)OC[C@H]1O[C@@H](n2cnc3c(N)ncnc32)[C@H](O)[C@@H]1OP(=O)(O)O (some centres unmarked) [acetofluoroacetyl-CoA] here?
A: PhaB is capable of efficiently reducing the acetofluoroacetyl-CoA substrate

Q: For CC(=O)O [acetate], which KM (acetate kinase (AckA)) is on record?
A: rapidly produce both acetyl- and fluoroacetyl-CoA in nearly quantitative yield

Q: CC(C(=O)O)C(=O)SCCNC(=O)CCNC(=O)[C@H](O)C(C)(C)COP(=O)(O)OP(=O)(O)OC[C@H]1O[C@@H](n2cnc3c(N)ncnc32)[C@H](O)[C@@H]1OP(=O)(O)O (some centres unmarked) [methylmalonyl-CoA] was tested. Which “LC-MS of triketide lactone formation” value (DEBSMod6+TE) did it give?
A: single round of chain elongation with its native methylmalonyl-CoA extender unit

Q: With CC(C)(COP(=O)(O)OP(=O)(O)OC[C@H]1O[C@@H](n2cnc3c(N)ncnc32)[C@H](O)[C@@H]1OP(=O)(O)O)[C@@H](O)C(=O)NCCC(=O)NCCSC(=O)CF [fluoroacetyl-CoA] as the compound, how does the one-pot carboxylation [1] read?
A: carry out the carboxylation of fluoroacetate in a one-pot reaction to generate the fluoromalonyl-CoA

Q: CC(C)(COP(=O)(O)OP(=O)(O)OC[C@H]1O[C@@H](n2cnc3c(N)ncnc32)[C@H](O)[C@@H]1OP(=O)(O)O)[C@@H](O)C(=O)NCCC(=O)NCCSC(=O)CC(=O)O [malonyl-CoA] was tested. Which KM (NphT7) did it give?
A: Steady-state kinetic parameters for NphT7-catalyzed C–C bond formation
